# Like-named read-outs stand apart in the source and are kept apart here.
# How the values were obtained:
# [1] = system: citrus canker pathogen (Xac); test: Turbidimetric anti-plant bacterial activity test, citrus canker pathogen; format: cell-based, Xanthomonas axonopodis pv. citri
# [2] = system: tobacco bacterial wilt pathogen (Rs); format: cell-based, Ralstonia solanacearum
# [3] = system: rice bacterial wilt pathogen (Xoo); format: cell-based, Xanthomonas oryzae pv. oryzae
Compound,Inhibition Rate ([1]; 50 μg/mL) [%],Inhibition Rate ([1]; 100 μg/mL) [%],Inhibition Rate ([2]; 50 μg/mL) [%],Inhibition Rate ([2]; 100 μg/mL) [%],Inhibition Rate ([3]; 50 μg/mL) [%],Inhibition Rate ([3]; 100 μg/mL) [%]
COc1cc(OC)c2c(=O)c(OCCCCN(C)C3CCN(S(=O)(=O)c4ccc(C)cc4)CC3)c(-c3cc(OC)c(OC)c(OC)c3)oc2c1 [Compound I11],47.25 ± 5.84,54.94 ± 8.29,46.83 ± 6.39,93.56 ± 0.55,71.76 ± 4.56,87.57 ± 2.76
COc1ccc(S(=O)(=O)N2CCC(N(C)CCCOc3c(-c4cc(OC)c(OC)c(OC)c4)oc4cc(OC)cc(OC)c4c3=O)CC2)cc1 [Compound I5],84.37 ± 1.91,95.86 ± 1.19,18.66 ± 9.95,49.03 ± 5.33,56.37 ± 2.44,68.42 ± 4.76
COc1cc(OC)c2c(=O)c(OCCCN(C)C3CCN(S(=O)(=O)c4ccc(F)cc4)CC3)c(-c3cc(OC)c(OC)c(OC)c3)oc2c1 [Compound I3],88.81 ± 1.32,94.73 ± 1.63,56.37 ± 3.41,55.25 ± 2.35,9.99 ± 7.64,53.31 ± 3.55
COc1cc(OC)c2c(=O)c(OCCCN(C)C3CCN(S(=O)(=O)c4ccccc4)CC3)c(-c3cc(OC)c(OC)c(OC)c3)oc2c1 [Compound I7],89.57 ± 2.14,92.48 ± 0.65,50.24 ± 2.21,52.83 ± 6.66,48.01 ± 3.21,53.46 ± 2.80
COc1cc(OC)c2c(=O)c(OCCCN(C)C3CCN(S(=O)(=O)c4ccc5ccccc5c4)CC3)c(-c3cc(OC)c(OC)c(OC)c3)oc2c1 [Compound I2],92.76 ± 2.12,99.55 ± 5.61,34.17 ± 5.87,30.28 ± 8.79,88.53 ± 5.30,99.01 ± 4.53
COc1cc(OC)c2c(=O)c(OCCCCN(C)C3CCN(S(=O)(=O)c4ccccc4)CC3)c(-c3cc(OC)c(OC)c(OC)c3)oc2c1 [Compound I17],99.00 ± 0.40,99.52 ± 0.87,45.66 ± 3.26,38.06 ± 1.91,89.16 ± 1.26,98.29 ± 2.42
COc1cc(OC)c2c(=O)c(OCCCCN(C)C3CCN(S(=O)(=O)c4ccc5ccccc5c4)CC3)c(-c3cc(OC)c(OC)c(OC)c3)oc2c1 [Compound I12],29.56 ± 7.62,35.81 ± 2.40,45.75 ± 3.32,36.46 ± 7.42,89.81 ± 1.34,95.44 ± 4.92
COc1cc(OC)c2c(=O)c(OCCCCN(C)C3CCN(S(=O)(=O)c4ccccn4)CC3)c(-c3cc(OC)c(OC)c(OC)c3)oc2c1 [Compound I18],88.69 ± 0.71,93.05 ± 0.55,46.22 ± 3.27,30.11 ± 1.65,70.98 ± 3.04,78.12 ± 4.25
COc1cc(OC)c2c(=O)c(OCCCCN(C)C3CCN(S(=O)(=O)c4ccccc4[N+](=O)[O-])CC3)c(-c3cc(OC)c(OC)c(OC)c3)oc2c1 [Compound I20],96.57 ± 0.31,97.30 ± 1.97,21.26 ± 8.58,4.11 ± 3.12,90.29 ± 4.84,94.47 ± 8.30
"bismerthiazol [Leaf Blight Azole, reference compound]",50.60,66.63,57.63,65.69,39.14,60.50
COc1cc(OC)c2c(=O)c(OCCCN(C)C3CCN(S(=O)(=O)c4ccccn4)CC3)c(-c3cc(OC)c(OC)c(OC)c3)oc2c1 [Compound I8],85.13 ± 2.35,88.03 ± 1.19,47.65 ± 0.35,48.99 ± 2.35,52.14 ± 3.12,59.94 ± 3.35
COc1cc(OC)c2c(=O)c(OCCCN(C)C3CCN(S(=O)(=O)c4ccccc4[N+](=O)[O-])CC3)c(-c3cc(OC)c(OC)c(OC)c3)oc2c1 [Compound I10],38.60 ± 4.17,45.69 ± 0.50,57.89 ± 3.30,94.99 ± 1.50,59.65 ± 2.25,67.71 ± 2.22
"Nc1nnc([S-])s1.Nc1nnc([S-])s1.[Cu+2] [Thiabenone, thiodiazole copper, reference compound]",44.97,70.68,20.86 ± 4.42,40.20,58.92,70.12
COc1cc(OC)c2c(=O)c(OCCCN(C)C3CCN(S(=O)(=O)c4ccc5cccnc5c4)CC3)c(-c3cc(OC)c(OC)c(OC)c3)oc2c1 [Compound I9],32.80 ± 2.29,42.50 ± 1.87,12.10 ± 2.57,28.82 ± 3.37,37.31 ± 5.41,40.25 ± 1.39
COc1cc(OC)c2c(=O)c(OCCCN(C)C3CCN(S(=O)(=O)c4cccs4)CC3)c(-c3cc(OC)c(OC)c(OC)c3)oc2c1 [Compound I4],76.83 ± 2.59,81.47 ± 3.58,46.44 ± 8.48,58.19 ± 8.11,21.34 ± 3.45,48.16 ± 4.24
COc1ccc(S(=O)(=O)N2CCC(N(C)CCCCOc3c(-c4cc(OC)c(OC)c(OC)c4)oc4cc(OC)cc(OC)c4c3=O)CC2)cc1 [Compound I15],62.21 ± 1.33,67.94 ± 1.42,3.13 ± 5.57,24.02 ± 2.41,94.39 ± 0.62,96.11 ± 0.71
COc1cc(OC)c2c(=O)c(OCCCCN(C)C3CCN(S(=O)(=O)c4ccc5cccnc5c4)CC3)c(-c3cc(OC)c(OC)c(OC)c3)oc2c1 [Compound I19],85.44 ± 1.04,89.05 ± 0.47,37.71 ± 3.71,35.21 ± 6.56,38.72 ± 1.36,51.83 ± 2.05
COc1cc(OC)c2c(=O)c(OCCCN(C)C3CCN(S(=O)(=O)c4ccc(C)cc4)CC3)c(-c3cc(OC)c(OC)c(OC)c3)oc2c1 [Compound I1],93.55 ± 0.85,99.20 ± 4.48,47.86 ± 5.55,58.01 ± 6.08,75.88 ± 1.80,81.34 ± 0.57
COc1cc(OC)c2c(=O)c(OCCCCN(C)C3CCN(S(=O)(=O)c4ccc([N+](=O)[O-])cc4)CC3)c(-c3cc(OC)c(OC)c(OC)c3)oc2c1 [Compound I16],66.33 ± 3.56,74.41 ± 1.31,27.52 ± 7.50,26.66 ± 4.37,55.67 ± 6.24,70.41 ± 2.62
COc1cc(OC)c2c(=O)c(OCCCCN(C)C3CCN(S(=O)(=O)c4cccs4)CC3)c(-c3cc(OC)c(OC)c(OC)c3)oc2c1 [Compound I14],66.18 ± 0.61,73.80 ± 3.68,20.44 ± 5.03,8.17 ± 3.75,92.19 ± 0.98,95.49 ± 0.98
COc1cc(OC)c2c(=O)c(OCCCN(C)C3CCN(S(=O)(=O)c4ccc([N+](=O)[O-])cc4)CC3)c(-c3cc(OC)c(OC)c(OC)c3)oc2c1 [Compound I6],96.13 ± 1.63,99.01 ± 0.64,26.01 ± 6.89,59.09 ± 4.18,52.08 ± 6.32,60.99 ± 5.49
COc1cc(OC)c2c(=O)c(OCCCCN(C)C3CCN(S(=O)(=O)c4ccc(F)cc4)CC3)c(-c3cc(OC)c(OC)c(OC)c3)oc2c1 [Compound I13],47.25 ± 4.42,48.08 ± 1.17,43.16 ± 3.98,49.25 ± 4.14,99.72 ± 1.10,100.00 ± 0.67

# Reference: patent publication US12063930B2, “Sulfonamide-containing 4-(N-methyl) aminopiperidine myricetin derivatives, preparation method and application” (Guizhou University, priority 2019, dated 2024)
